Measured values reported in publication PMC9551036, “A selective and orally bioavailable VHL-recruiting PROTAC achieves SMARCA2 degradation in vivo” (Nature Communications, 2022).
Several values for one entry are separate records, joined by “and”; a condition that tells them apart may be missing. Identical values can stand only once. Like-named read-outs stand apart in the source and are kept apart here.

Key:
[1] = target: SMARCA2 (Homo sapiens, UniProt P51531); assay: Imaging-based SMARCA2 protein assay in RKO cells; type: cell-based; set-up: endogenous in cells; host or cells: RKO, NCI-H1568, A549, HCT116, LU99, HCC-364, HCT-15, HCC4006, SK-N-AS; settings: individual replicates
SMARCA2, sequence (P51531 whole entry): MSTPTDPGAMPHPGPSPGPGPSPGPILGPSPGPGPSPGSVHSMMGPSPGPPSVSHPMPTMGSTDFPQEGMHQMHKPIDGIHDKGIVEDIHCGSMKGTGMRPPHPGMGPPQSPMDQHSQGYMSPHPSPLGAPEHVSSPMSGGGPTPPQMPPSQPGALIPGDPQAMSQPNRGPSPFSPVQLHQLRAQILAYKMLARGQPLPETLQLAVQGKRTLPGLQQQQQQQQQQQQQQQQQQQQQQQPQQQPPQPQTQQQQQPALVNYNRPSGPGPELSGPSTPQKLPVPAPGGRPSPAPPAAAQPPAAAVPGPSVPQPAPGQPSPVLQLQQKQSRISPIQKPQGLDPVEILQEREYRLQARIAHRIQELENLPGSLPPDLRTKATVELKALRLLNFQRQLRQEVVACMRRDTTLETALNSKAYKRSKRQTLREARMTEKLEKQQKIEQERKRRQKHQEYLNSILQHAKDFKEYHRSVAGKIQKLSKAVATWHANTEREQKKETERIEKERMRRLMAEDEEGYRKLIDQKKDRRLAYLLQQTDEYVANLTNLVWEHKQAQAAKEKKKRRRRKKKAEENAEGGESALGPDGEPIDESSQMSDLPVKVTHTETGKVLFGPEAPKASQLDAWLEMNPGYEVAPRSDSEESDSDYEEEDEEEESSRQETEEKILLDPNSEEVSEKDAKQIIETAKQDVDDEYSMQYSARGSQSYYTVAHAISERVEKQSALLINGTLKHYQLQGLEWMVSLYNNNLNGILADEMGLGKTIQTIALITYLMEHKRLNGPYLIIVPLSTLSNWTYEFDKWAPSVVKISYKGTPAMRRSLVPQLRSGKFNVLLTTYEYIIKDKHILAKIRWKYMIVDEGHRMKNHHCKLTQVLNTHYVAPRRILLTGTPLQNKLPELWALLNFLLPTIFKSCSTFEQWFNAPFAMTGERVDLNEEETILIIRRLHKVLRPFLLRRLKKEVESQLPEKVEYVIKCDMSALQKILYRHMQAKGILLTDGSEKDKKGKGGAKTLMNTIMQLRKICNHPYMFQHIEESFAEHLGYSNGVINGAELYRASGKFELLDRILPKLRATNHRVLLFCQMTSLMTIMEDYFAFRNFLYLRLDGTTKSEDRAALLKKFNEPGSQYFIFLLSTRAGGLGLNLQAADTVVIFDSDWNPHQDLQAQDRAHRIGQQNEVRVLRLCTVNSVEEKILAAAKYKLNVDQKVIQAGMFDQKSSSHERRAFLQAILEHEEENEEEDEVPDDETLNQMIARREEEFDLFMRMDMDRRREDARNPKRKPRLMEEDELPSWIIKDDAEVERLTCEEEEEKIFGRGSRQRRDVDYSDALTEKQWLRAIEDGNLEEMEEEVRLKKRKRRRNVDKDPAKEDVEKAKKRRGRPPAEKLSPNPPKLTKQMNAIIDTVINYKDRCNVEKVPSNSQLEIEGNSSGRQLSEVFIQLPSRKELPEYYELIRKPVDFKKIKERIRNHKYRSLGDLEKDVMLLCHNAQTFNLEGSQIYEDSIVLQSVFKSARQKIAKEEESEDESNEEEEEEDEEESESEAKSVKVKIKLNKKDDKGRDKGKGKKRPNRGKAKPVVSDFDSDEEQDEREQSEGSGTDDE
Method: 1250 cells per well in 60 µl medium were plated in flat bottom, poly-lysin coated 384-well plates (CellCarrier Ultra, Perkin Elmer). The next day, test compounds (10 µl of serial dilutions) and DMSO controls were diluted in DMEM medium such that the final DMSO content was <1% or were added using an ultrasound dispensing system. 4 wells were reserved for a background measurement. […] After aspirating the fixing solution, the cells were washed once with 25 µl PBS. 25 µl of blocking buffer (10% goat serum in PBS) was added and cells were incubated for 30 min, then washed once with PBS. […] Cells were again washed once with PBS. […] The cell layer was then washed once with 25 µl PBS, the wells were filled with 25 µl PBS and the plates were sealed with an adhesive sheet. They were then imaged on the Opera Phoenix (mean intensity in the nucleus). […] EC50 values were computed using a 4-parametric logistic model.

[2] = test system: VCB: PROTAC: SMARCA2^BD ternary complex; assay: TR-FRET ternary complex affinity and cooperativity, SMARCA2; type: binding, human; settings: ratio TR-FRET EC50 / TR-FRET EC50 +VCB measured in the same run, SMARCA2BD
[3] = test system: VCB: PROTAC: SMARCA4^BD ternary complex; assay: TR-FRET ternary complex affinity and cooperativity, SMARCA4; type: binding, human; settings: ratio TR-FRET EC50 / TR-FRET EC50 +VCB measured in the same run, SMARCA4BD
[4] = target: SMARCA4 (Homo sapiens, UniProt P51532); assay: Imaging-based SMARCA4 protein assay in RKO cells; type: cell-based; set-up: endogenous in cells; host or cells: RKO, HCT116, LU99, HCC-364, HCT-15, HCC4006, SK-N-AS; settings: individual replicates
SMARCA4, sequence (P51532 whole entry): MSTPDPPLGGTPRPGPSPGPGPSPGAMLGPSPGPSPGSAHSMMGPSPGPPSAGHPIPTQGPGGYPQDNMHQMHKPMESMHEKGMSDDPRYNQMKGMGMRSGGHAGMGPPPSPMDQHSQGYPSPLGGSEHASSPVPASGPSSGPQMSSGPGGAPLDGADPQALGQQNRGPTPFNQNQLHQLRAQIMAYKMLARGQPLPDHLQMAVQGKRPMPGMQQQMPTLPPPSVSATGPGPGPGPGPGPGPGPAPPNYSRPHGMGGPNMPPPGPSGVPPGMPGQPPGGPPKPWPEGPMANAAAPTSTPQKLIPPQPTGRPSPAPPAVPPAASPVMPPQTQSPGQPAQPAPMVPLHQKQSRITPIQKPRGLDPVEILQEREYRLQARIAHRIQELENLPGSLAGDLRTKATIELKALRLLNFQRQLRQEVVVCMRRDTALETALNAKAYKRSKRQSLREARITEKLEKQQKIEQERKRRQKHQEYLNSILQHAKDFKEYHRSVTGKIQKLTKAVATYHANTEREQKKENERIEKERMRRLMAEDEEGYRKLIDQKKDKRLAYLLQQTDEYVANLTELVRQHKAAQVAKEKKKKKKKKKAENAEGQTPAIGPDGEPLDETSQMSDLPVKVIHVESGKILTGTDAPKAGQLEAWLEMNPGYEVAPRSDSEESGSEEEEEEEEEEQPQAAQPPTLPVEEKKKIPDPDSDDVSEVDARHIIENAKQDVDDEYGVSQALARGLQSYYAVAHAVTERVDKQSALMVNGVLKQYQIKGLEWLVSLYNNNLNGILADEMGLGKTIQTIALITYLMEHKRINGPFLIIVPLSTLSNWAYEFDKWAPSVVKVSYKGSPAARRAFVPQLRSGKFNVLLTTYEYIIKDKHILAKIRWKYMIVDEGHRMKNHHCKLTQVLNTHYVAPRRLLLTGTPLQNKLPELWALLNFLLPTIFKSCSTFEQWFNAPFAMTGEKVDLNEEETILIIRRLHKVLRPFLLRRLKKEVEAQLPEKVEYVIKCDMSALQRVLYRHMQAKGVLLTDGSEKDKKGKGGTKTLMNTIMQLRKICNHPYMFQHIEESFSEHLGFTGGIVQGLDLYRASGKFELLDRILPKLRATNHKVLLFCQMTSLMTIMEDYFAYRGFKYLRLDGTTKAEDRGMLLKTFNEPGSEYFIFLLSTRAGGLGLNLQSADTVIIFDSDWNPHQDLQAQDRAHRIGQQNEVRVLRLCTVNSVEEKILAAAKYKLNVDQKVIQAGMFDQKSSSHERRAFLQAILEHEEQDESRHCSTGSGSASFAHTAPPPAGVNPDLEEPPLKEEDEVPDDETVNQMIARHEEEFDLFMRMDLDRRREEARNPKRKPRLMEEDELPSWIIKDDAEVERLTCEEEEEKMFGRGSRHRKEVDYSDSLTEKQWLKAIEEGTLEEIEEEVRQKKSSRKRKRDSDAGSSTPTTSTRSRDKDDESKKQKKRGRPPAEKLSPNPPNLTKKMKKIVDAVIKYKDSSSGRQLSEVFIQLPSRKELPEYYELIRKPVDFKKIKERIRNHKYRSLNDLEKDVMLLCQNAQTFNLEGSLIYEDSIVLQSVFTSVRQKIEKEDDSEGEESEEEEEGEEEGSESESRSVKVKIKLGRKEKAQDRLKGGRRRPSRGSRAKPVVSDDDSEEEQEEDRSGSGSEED
Method: 1250 cells per well in 60 µl medium were plated in flat bottom, poly-lysin coated 384-well plates (CellCarrier Ultra, Perkin Elmer). The next day, test compounds (10 µl of serial dilutions) and DMSO controls were diluted in DMEM medium such that the final DMSO content was <1% or were added using an ultrasound dispensing system. 4 wells were reserved for a background measurement. […] After aspirating the fixing solution, the cells were washed once with 25 µl PBS. 25 µl of blocking buffer (10% goat serum in PBS) was added and cells were incubated for 30 min, then washed once with PBS. Cells were stained with 20 µl of SMARCA2/4 primary antibody solution (Sigma #HPA029981 RRID:AB_10602406 1:1000 or Cell Signalling #52251 clone E9O6 RRID:AB_2799410 1:1000 in PBS with 10% FCS) for 2–4 h at room temperature. Cells were again washed once with PBS. […] The cell layer was then washed once with 25 µl PBS, the wells were filled with 25 µl PBS and the plates were sealed with an adhesive sheet. They were then imaged on the Opera Phoenix (mean intensity in the nucleus). Results were computed as percent of controls ((value of test compound − background)/(value of the negative control DMSO—background) multiplied by 100). EC50 values were computed using a 4-parametric logistic model.

[5] = target: VCB: PROTAC: SMARCA4^BD ternary complex (Homo sapiens, UniProt P40337+P51532); assay: TR-FRET ternary complex affinity and cooperativity, SMARCA4; type: binding; set-up: P51532, residues 1448–1569 with additional N-terminal SM residues; GST (TEV site) (N); His6 (TEV site) (N, cleaved yes); made in house; host or cells: SMARCA4^BD: Escherichia coli BL21(DE3)
VCB: PROTAC: SMARCA4^BD ternary complex (Homo sapiens, UniProt P40337+P51532), sequence (P51532 1448-1569): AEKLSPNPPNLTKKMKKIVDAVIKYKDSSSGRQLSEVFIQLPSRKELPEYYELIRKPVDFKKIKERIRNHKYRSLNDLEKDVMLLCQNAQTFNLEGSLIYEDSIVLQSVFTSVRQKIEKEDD
VCB: PROTAC: SMARCA4^BD ternary complex (Homo sapiens, UniProt P40337+P51532), sequence (P40337 54-213): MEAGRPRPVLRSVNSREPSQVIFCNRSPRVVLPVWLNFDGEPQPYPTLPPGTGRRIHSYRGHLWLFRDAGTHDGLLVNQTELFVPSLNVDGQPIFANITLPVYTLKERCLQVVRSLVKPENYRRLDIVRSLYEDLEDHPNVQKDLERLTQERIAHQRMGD
VCB: PROTAC: SMARCA4^BD ternary complex (Homo sapiens, UniProt P40337+P51532), sequence (Q15369 17-112 partner): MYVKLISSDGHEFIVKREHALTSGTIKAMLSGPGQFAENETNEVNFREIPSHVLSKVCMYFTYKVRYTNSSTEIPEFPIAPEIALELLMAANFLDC
VCB: PROTAC: SMARCA4^BD ternary complex (Homo sapiens, UniProt P40337+P51532), sequence (Q15370 1-104 partner): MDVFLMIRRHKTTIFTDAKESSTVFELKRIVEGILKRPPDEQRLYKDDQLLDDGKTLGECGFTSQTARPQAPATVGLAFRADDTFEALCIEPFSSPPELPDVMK

[6] = Solubility testing; type: physicochemical; settings: for solubility at 24 h: buffer, kinetic from dmso stock
Method: Dilution into a 1:1 mixture of acetonitrile and water was used as reference. After 24 h, the incubations were filtrated, and the filtrate was analyzed by LC-UV.

[7] = target: T1, PBRM1BD5 (Homo sapiens, UniProt Q86U86); assay: TR-FRET ternary complex affinity and cooperativity, PBRM1; type: binding; settings: TR-FRET competition for PBRM1BD5, without VCB; mean ± SD; read-out: TR-FRET PBRM1BD EC50
T1 construct: GST (TEV site) (N); His6 (TEV site) (N, cleaved yes); made in house; host or cells: PBRM1^BD5: Escherichia coli BL21(DE3)
T1 sequence (Q86U86 645-766): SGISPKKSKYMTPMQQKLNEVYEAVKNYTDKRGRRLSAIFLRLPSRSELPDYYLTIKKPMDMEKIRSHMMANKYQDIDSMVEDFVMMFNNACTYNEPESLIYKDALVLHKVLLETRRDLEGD

[8] = 4h, read-out: RKO (4h) SMARCA2 DC50
[9] = 18h, read-out: RKO (18h) SMARCA2 DC50
[10] = 18h, read-out: RKO (18h) SMARCA4 DC50
[11] = PROTAC + VCB, individual replicates, read-out: Ternary SMARCA4 BD EC50 (PROTAC + VCB)
[12] = TR-FRET competition for SMARCA4BD, + VCB, mean ± SD, read-out: TR-FRET Ternary SMARCA4BD EC50 (PROTAC + VCB)
[13] = 4h, read-out: RKO (4h) SMARCA4 DC50

Cc1ncsc1-c1ccc([C@H](CCCCN2CCC(c3ccc4c(c3)n(C3CCCC3)c3nc(=O)c5c(Br)cccc5n43)CC2)NC(=O)[C@@H]2C[C@@H](O)CN2C(=O)[C@@H](NC(=O)C2(F)CC2)C(C)(C)C)cc1 [compound 25]
DC50 [1, 8]: 4.26 nM and 1.82 nM and 3.89 nM and 3.46 nM
DC50 [1, 9]: 2 nM and 2.63 nM and 3.33 nM
cooperativity α (SMARCA2BD) [2]: 2.2 ± 0.6
cooperativity α (SMARCA4BD) [3]: 2.3 ± 0.4
DC50 [4, 10]: 31.7 nM and 60 nM and 33.5 nM
EC50 [5, 11]: 69.7 nM and 82.3 nM and 75.3 nM and 90.7 nM
EC50 [5, 12]: 79 ± 9 nM
Solubility pH 4.5 ([6]; pH 4.5): <1.000 ug/mL
Solubility pH 6.8 ([6]; pH 6.8): <1.000 ug/mL
EC50 [7]: 36 ± 12 nM

Cc1ncsc1-c1ccc([C@H](CCCCCN2CCC(c3ccc4c(c3)n(C3CCCC3)c3nc(=O)c5c(Br)cccc5n43)CC2)NC(=O)[C@@H]2C[C@@H](O)CN2C(=O)[C@@H](NC(=O)C2(F)CC2)C(C)(C)C)cc1 [compound 11]
DC50 [1, 8]: 1.71 nM and 0.766 nM and 2.04 nM and 3.68 nM
DC50 [1, 9]: 0.942 nM and 1.07 nM and 0.993 nM and 0.885 nM
cooperativity α (SMARCA2BD) [2]: 5.3 ± 2.1
cooperativity α (SMARCA4BD) [3]: 4.2 ± 0.4
DC50 [4, 13]: 20 nM and 10.1 nM and 26.4 nM and 8.2 nM
DC50 [4, 10]: 9.56 nM and 14.6 nM and 11.5 nM and 9.12 nM and 15.1 nM
EC50 [5, 11]: 65.3 nM and 77.7 nM and 60.4 nM
EC50 [5, 12]: 67 ± 9 nM
solubility [6]: moderate solubility
solubility at 24 h ([6]; pH 4.5, aqueous buffer, pH 4.5, read-out: Solubility pH 4.5): < 1 µg/mL
solubility at 24 h ([6]; pH 6.8, aqueous buffer, pH 6.8, read-out: Solubility pH 6.8): < 1 µg/mL
EC50 [7]: 41 ± 8 nM

Cc1ncsc1-c1ccc(CNC(=O)[C@@H]2C[C@@H](O)CN2C(=O)[C@@H](NC(=O)C2(F)CC2)C(C)(C)C)c(OCCOCCOCCN2CCC(c3ccc4c(c3)n(C3CCCC3)c3nc(=O)c5c(Br)cccc5n43)CC2)c1 [compound 21]
DC50 [1, 8]: > 25000 nM
DC50 [1, 9]: 77.5 nM and 151 nM and 100 nM
cooperativity α (SMARCA2BD) [2]: 1.9 ± 0.1
cooperativity α (SMARCA4BD) [3]: 4.0 ± 0.2
DC50 [4, 13]: 22.9 nM and 45.5 nM and 8.98 nM
DC50 [4, 10]: 42.3 nM and 189 nM and 70.5 nM
EC50 [5, 11]: 119 nM and 144 nM and 128 nM
EC50 [5, 12]: 130 ± 13 nM
Solubility pH 4.5 ([6]; pH 4.5): 200.000 ug/mL and 180.000 ug/mL and 190.000 ug/mL
EC50 [7]: 76 ± 4 nM
